Assays:
Format in all cases: cell-based
[1] = test system: immortalized benign RWPE prostate cells; assay: Modified Boyden chamber matrigel invasion assay, RWPE cells; details: for increased invasion upon sarcosine addition compared to control / induction of invasion upon exogenous addition: benign prostate epithelial cells; for increased invasion upon sarcosine addition compared to control: alanine as control
Description: To investigate the biological role of sarcosine elevation in prostate cancer, prostate cancer cell lines VCaP, DU145, 22RV1 and LNCaP and their benign epithelial counterparts, primary benign prostate epithelial cells PrEC and immortalized benign RWPE prostate cells were used.
To determine if sarcosine plays a role in this process, it was added directly to non-invasive benign prostate epithelial cells. Alanine (an isomer of sarcosine) was used as a control for these experiments. […] The present invention is not limited to a particular mechanism. Indeed, an understanding of the mechanism is not necessary to practice the present invention.
To understand the role of sarcosine in prostate cancer progression, levels of the metabolite was measured in a panel of prostate-derived cell lines. […] The knock down studies were carried out using specific siRNA and the extent of target inhibition was assessed using Q-PCR. The in vitro Boyden chamber assay was used to qualify the modulation in the invasiveness of the knock down cells.

EGFR = assay: Immunoblot analysis of EGFR phosphorylation and total EGFR; details: for total EGFR levels upon treatment: prostate epithelial cells
p38MAPK = assay: Immunoblot analysis of p38MAPK phosphorylation; details: sarcosine-treated PrEC samples
Source text: (§1) Also total EGFR levels were elevated upon treatment with alanine or sarcosine. […] This observation was further strengthened using both antibody-mediated inhibition of EGFRactivity and siRNA-mediated knock-down of receptor levels.

src = assay: Immunoblot analysis of src phosphorylation; details: prostate epithelial cells (PrEC), compared to alanine-treated controls
Source text: as §1

[2] = RWPE cells, control non-target siRNA-transfected

Compound	increased invasion upon sarcosine addition compared to control ([1]; 25 μM) [fold]	increased invasion upon sarcosine addition compared to control ([1]; 50 μM) [fold]	invasion upon amino acid addition, mean±SEM ([1]; RWPE cells with GNMT knockdown)	invasion upon amino acid addition, mean±SEM [1, 2]	induction of invasion upon exogenous addition [1]	total EGFR levels upon treatment (EGFR)	EGFR phosphorylation upon treatment (EGFR; prostate epithelial cells (PrEC), compared to alanine-treated controls)	p38MAPK phosphorylation upon treatment (p38MAPK)	src phosphorylation upon treatment (src)
CNCC(=O)O [sarcosine]	1.64	2.57	0.64±0.07	0.65±0.05	imparted an invasive phenotype	elevated	time-dependent increase	phosphorylation of p38MAPK	time-dependent increase
NCC(=O)O [glycine]	–	–	0.20±0.03	0.46±0.04	induced invasion in these cells, although to a lesser degree than sarcosine	–	–	–	–
C[C@H](N)C(=O)O [alanine, reference compound]	–	–	–	–	–	elevated	–	–	–
